The values below come from US10213375B2, “Cosmetic or dermatological compositions combining cosmetiques retinaldehyde and glycylglycine oleamide and the cosmetic or dermatological uses thereof” (PIERRE FABRE DERMO-COSMETIQUE, priority 2013, dated 2019).

The subject of assay [1] is keratinocytes A431. As to the kind of experiment: Modulation of retinylic esters induced by retinoids in keratinocytes (HPLC). In kind it is cell-based. The conditions noted are these: for Retinol / Retinylic esters: incubation 24 to 72 h, averaged values; for Total: retinol plus retinylic esters. As for the experimental part: The study was carried out on keratinocytes A431 in a culture. Indeed, in these cells, no endogenous retinoid was measured. A retinoid has to be applied beforehand in order to measure cell retinoids. The retinoids were measured by HPLC. The incubation in the presence of various agents or combination of agents dissolved in 1% of ethanol in the culture medium, was carried out for 24 to 72 h. These are averaged values expressed in pmol/mg of protein.

Assay [2] concerns CD44 and hyaluronate in follicular and interfollicular epidermis. To be noted: topical application, mice; cited from earlier work.
In assay [3] the test system is epidermal retinoids. The conditions noted are these: hairless mice, topical 0.05% for 7 days, then UVB 1 J/cm^2, cited from earlier work; for Prevention of photo-induced depletion of epidermal retinylic esters / retinoids: assayed 24 h after radiation.
The target of assay [4] is T1, glucocerebrosidase (Homo sapiens, UniProt P04062).
T1 sequence (P04062 40-536): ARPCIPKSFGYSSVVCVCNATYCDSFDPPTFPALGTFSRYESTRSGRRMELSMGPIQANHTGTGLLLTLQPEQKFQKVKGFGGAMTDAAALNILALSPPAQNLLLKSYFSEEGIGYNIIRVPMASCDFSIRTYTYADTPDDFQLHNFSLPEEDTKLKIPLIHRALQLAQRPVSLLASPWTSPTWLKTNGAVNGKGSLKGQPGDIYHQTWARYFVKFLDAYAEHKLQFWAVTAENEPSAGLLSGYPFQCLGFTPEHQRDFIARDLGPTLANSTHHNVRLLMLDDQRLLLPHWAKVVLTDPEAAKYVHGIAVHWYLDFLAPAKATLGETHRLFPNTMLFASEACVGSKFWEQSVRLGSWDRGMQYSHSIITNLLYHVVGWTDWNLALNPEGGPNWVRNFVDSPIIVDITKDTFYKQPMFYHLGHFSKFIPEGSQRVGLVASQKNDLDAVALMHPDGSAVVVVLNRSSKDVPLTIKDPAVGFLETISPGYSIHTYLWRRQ
The conditions noted are these: compared with reference 4-methylumbelliferyl glucopyranoside; cited from earlier work.

Where a SMILES comes first, the peptide text is derived from it.

On to `NCC(=O)NCC(=O)O` [GG, glycylglycine] (H-Gly-Gly-OH), for which, in assay [1] (agent 15 μM in 1% ethanol), the Retinol was <10 pmol/mg of protein and the Retinylic esters is <10 pmol/mg of protein. Besides, in assay [1] (agent 15 μM), the Total was <10 pmol/mg of protein.

For the compound `CCCCCCCC/C=C\CCCCCCCC(=O)O` [OA, oleic acid], in assay [1] (agent 15 μM in 1% ethanol), the Retinol is <10 pmol/mg of protein and the Retinylic esters was <10 pmol/mg of protein. For the same compound, the Total in assay [1] (agent 15 μM) was <10 pmol/mg of protein.

`CC1=C(/C=C/C(C)=C/C=C/C(C)=C/C=O)C(C)(C)CCC1` [RAL, retinaldehyde]: the “Induction / modulation of retinylic esters and cell retinoids in keratinocytes (in words)” value (“Induction / modulation” for short) in assay [1] is given as “induces a series of retinylic esters”. In assay [1] (agent 2 μM in 1% ethanol), the Retinol is reported as 865 pmol/mg of protein and the Retinylic esters is 280 pmol/mg of protein. The Total in assay [1] (agent 2 μM) was 1145 pmol/mg of protein. For the same compound, in assay [2], the Epidermal hyperplasia result is recorded as “inducing epidermal hyperplasia”; the “Expression of CD44 and of hyaluronate versus retinoic acid and retinol” value was “more strongly increased”. In assay [3], the “Prevention of photo-induced depletion of epidermal retinylic esters / retinoids” value is “prevent photo-induced depletion of epidermal retinylic esters” and the “Profile in the study of photo-induced depletion of retinoids” value was “best profile”.

For the compound `CCCCCCCCCCCCCCCC(=O)OC/C=C(C)/C=C/C=C(C)/C=C/C1=C(C)CCCC1(C)C` [ROL-Pal, retinyl palmitate], in assay [1], the “Induction / modulation” value is “less cell retinoids than retinaldehyde”. Moreover, in assay [1] (agent 15 μM in 1% ethanol), the Retinol is 389 pmol/mg of protein and the Retinylic esters is given as 178 pmol/mg of protein. Further, the Total in assay [1] (agent 15 μM) is recorded as 567 pmol/mg of protein.

With `Cc1cc(O[C@@H]2O[C@H](CO)[C@@H](O)[C@H](O)[C@H]2O)cc2c1O[C@](C)(CCC[C@H](C)CCC[C@H](C)CCCC(C)C)CC2` [delta-tocopherol-glucopyranoside], the “Release of delta-tocopherol on enzymatic hydrolysis” value in assay [4] is “slowly releases delta-tocopherol”.

With `CC1=C(/C=C/C(C)=C/C=C/C(C)=C/CO)C(C)(C)CCC1` [retinol, reference compound], the “Prevention of photo-induced depletion of epidermal retinylic esters / retinoids” value in assay [3] is reported as “prevent photo-induced depletion of epidermal retinylic esters”.

Consider glycylglycine oleamide [OGG], for which the “Induction / modulation” value in assay [1] is “significantly increased”. In assay [1] (agent 15 μM in 1% ethanol), the Retinol is listed as <10 pmol/mg of protein and the Retinylic esters is <10 pmol/mg of protein. Besides, in assay [1] (agent 15 μM), the Total was <10 pmol/mg of protein.
